We go through 29 compounds from patent publication US20230039836A1, “AROMATIC SULPHONAMIDES DERIVATIVES THAT INHIBITS PDI A3, THEIR SYNTHESIS AND USE” (Uniwersytet Jagiellonski, priority 2020, published 2023).

One data set addresses T1, PDI A1 (Homo sapiens, UniProt P07237).
T1 construct: purchased Mybiosource; host or cells: E. coli
Description: Insulin turbidometric assay, inhibition of PDI A1. Particulars: insulin reduction, turbidity at 650 nm, 60 min incubation at 37° C.; read-out: Inhibition of PDI A1 (EC 50). It counts as biochemical. The method, then:
The inhibitory effects compounds of invention on activity of PDI A1 was assess based on the insulin turbidometric assay. Enzymatic activity of PDIA1 was confirmed by measuring the turbidity increase at 650 nm due to insulin reduction. The assay mixture was prepared by addition 10 ug/ml PDIA1 (E.coli recombinant protein; Mybiosource), 0.1 mM phosphate buffer (pH7.6), 1 mM EDTA, 0.087 mM DTT and with or without tested compound and was incubated for 60 min, at 37° C. Reaction was started by addition insulin and DTT. Final concentration of insulin and DTT in assay mixture was 0.15 mM and 0.174 mM, respectively. Turbidity was detected at 650 nm against reference samples without PDI A1s. The measurements were performed at 650 nm using 120-s recordings.

The test system of data set [1] is HT-1080 (human fibrosarcoma). The experiment in a line: MTT antiproliferative assay, 48 h. It is filed as cell-based. The note with it: 48-hour exposition, read-out: Cytotoxicity, IC50, µM HT-1080. As for the experimental part:
(§1) About 2000-4000 cells per well (depending on line nature) were placed in 96-well plates and after 24 h compounds were added to the wells. Untreated cells were used as a control. The plates were incubated for 48 h, 37° C., 5% CO2. The number of surviving cells was determined using 3-(4,5-dimethylthiazol-2-yl)-2,5-diphenyltetrazolinium bromide (MTT). MTT-test: after incubating culture medium was removed and 200 µL fresh medium with 20 µL MTT (2 mg/mL in HBSS) was added in each well of the plate. After incubation (3 hr., 37° C., 5% CO2), the medium with MTT was removed and 200 µL DMSO were added at once to each sample. The samples were tested at 540 nm on Thermo Scientific Multiskan EX microplate photometer. The half-maximal inhibitory concentration (IC50) of each compound was calculated using Graph Pad Prism® 3.0.

For data set [2], the system named is MCF-7 (human breast adenocarcinoma, estrogen-positive). The experiment in a line: MTT antiproliferative assay, 48 h. It counts as cell-based. The note with it: Homo sapiens, MCF7, 48-hour exposition, read-out: Cytotoxicity, IC50, µM MCF-7. As for the experimental part:
as §1
(Tetrazolium assays rely on reduction of a dye to a coloured formazan, in cell work by metabolically active cells.)

Data set [3] relates to MDA-MB-231 (human mammary breast adenocarcinoma). Description: MTT antiproliferative assay, 48 h. It counts as cell-based. Particulars: Homo sapiens, MDA-MB-231, 48-hour exposition, read-out: Cytotoxicity, IC50, µM MDA-MB-231. The method, then:
as §1

Data set [4] deals with Caco-2 (human colon adenocarcinoma). Description: MTT antiproliferative assay, 48 h. It counts as cell-based. The note with it: Homo sapiens, Caco-2, 48-hour exposition, read-out: Cytotoxicity, IC50, µM CaCo-2. The method, then: as §1
Data set [5] deals with Lewis Lung Carcinoma (LLC). The experiment in a line: Murine model of Lewis Lung Carcinoma. It is filed as in vivo, mice. The note with it: in vivo, FIG. 5; for Effect on animal weight: no evident toxicity. The method, then:
To confirm anticancer activity of selected compounds of invention, PDI A1-inhibitors in vivo, selected compounds of invention were tested in the murine model of Lewis Lung Carcinoma (LLC). The Lewis Lung Carcinoma (LLC) cell line was obtained from the ATCC collection and was cultured in a humidified atmosphere of 5% CO2 at 37° using Dulbecco’s modified Eagle’s medium (DMEM) that contained 10% bovine serum (Sigma). Female (6-8 weeks old) C57BL/6 mice (purchased from Envigo RMS. BV., Nederland) were acclimated for one week and were fed with animal chow and water ad libitum. The C57BL/6 mice were injected s.c. with 0.5 × 10^5 LLC cells per mice in 100 µL PBS. Compounds were dissolved in DMSO and then 0.9% NaCl (DMSO final concentration 1%) were added. In each treatment group, i.p. injections of 100 µl compound were started on 1 day after tumor inoculation. Control animals injected with equal volume of 0.9% NaCl with 1% DMSO administered in the same schedule as other groups. Tumor larger radius (a) and smaller radius (b) were measured by calipers. The tumor volume (Tv) was calculated according the following formulaTv = V=4 • ab2/3. The mice in control group were sacrificed 17 days after tumor establishment. Tumor tissues were dissected, weighed and frozen in OCT compound.

The structures appear in SMILES notation. Some results are limits rather than exact numbers.

Usually IC50 stands for the concentration needed to halve the response being measured.

T1 sequence (P07237 18-508, species assumed): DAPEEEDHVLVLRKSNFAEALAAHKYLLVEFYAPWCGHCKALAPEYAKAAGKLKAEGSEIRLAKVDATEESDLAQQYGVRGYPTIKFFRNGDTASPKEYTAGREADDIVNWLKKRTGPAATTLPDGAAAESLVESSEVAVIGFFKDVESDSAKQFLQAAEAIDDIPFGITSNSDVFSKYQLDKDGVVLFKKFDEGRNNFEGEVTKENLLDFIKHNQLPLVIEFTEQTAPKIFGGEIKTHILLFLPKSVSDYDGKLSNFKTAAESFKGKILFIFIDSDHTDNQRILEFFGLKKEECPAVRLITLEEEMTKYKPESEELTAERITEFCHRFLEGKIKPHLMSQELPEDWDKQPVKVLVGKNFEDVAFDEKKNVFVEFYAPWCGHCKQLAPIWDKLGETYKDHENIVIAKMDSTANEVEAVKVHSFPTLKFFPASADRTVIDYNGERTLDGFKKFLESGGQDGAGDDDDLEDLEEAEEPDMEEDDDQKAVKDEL

With `Cc1ccc(S(=O)(=O)N2CC2C(N)=O)cc1` (stereo not drawn) [Compound C-3220, 1-(p-Tolylsulfonyl)aziridine-2-carboxamide], at PDI A1, the EC50 is > 200 µM.

Regarding `COC(=O)C1CN1S(=O)(=O)c1ccc(C(F)(F)F)cc1` (stereo not drawn) [Compound C-3256, Methyl 1-[4-(trifluoromethyl)phenyl]sulfonylaziridine-2-carboxylate], at PDI A1, the EC50 stood at 0.5 µM.

For `Cc1ccc(S(=O)(=O)N2CC2C=O)cc1` (stereo not drawn) [Compound C-3262, 1-(p-Tolylsulfonyl)aziridine-2-carbaldehyde], the EC50 at PDI A1 was determined as 160 µM. The IC50 amounted to 3.8 ± 0.3 µM in data set [1], 7.2 ± 0.8 µM in data set [2], 6.8 ± 0.8 µM in data set [3] and 13.5 ± 0.8 µM in data set [4].

Turning to `CC(=O)C1CN1S(=O)(=O)c1ccc(C)cc1` (stereo not drawn) [Compound C-3263, 1-[1-(p-Tolylsulfonyl)aziridin-2-yl]ethanone], the EC50 on PDI A1 stood at 140 µM. The IC50 in data set [1] was 7.6 ± 0.2 µM; in data set [2] it was 17 ± 0.2 µM; in data set [3], 9.1 ± 0.5 µM; in data set [4] it was 29 ± 0.8 µM.

For the compound `CCCCCCCCCCCCc1ccc(S(=O)(=O)N2CC2C(=O)OC)cc1` (stereo not drawn) [Compound C-3270, Methyl 1-(4-dodecylphenyl)sulfonylaziridine-2-carboxylate], at PDI A1, the EC50 amounted to 0.8 µM.

`CCCCOc1ccc(S(=O)(=O)N2CC2C(=O)OC)cc1` (stereo not drawn) [Compound C-3271, Methyl 1-(4-butoxyphenyl)sulfonylaziridine-2-carboxylate]: on PDI A1, the EC50 was 1 µM.

For the compound `CCCCc1ccc(S(=O)(=O)N2CC2C(C)=O)cc1` (stereo not drawn) [Compound C-3272, 1-[1-(4-Butylphenyl)sulfonylaziridin-2-yl] ethanone], the EC50 at PDI A1 amounted to 0.5 µM. For the same compound, the IC50 in data set [1] turned out to be 4.5 ± 0.9 µM; in data set [2], 26 ± 0.4 µM; in data set [3], 8.4 ± 0.9 µM; in data set [4] it was 57 ± 6 µM.

`CCCCc1ccc(S(=O)(=O)N2CC2C=O)cc1` (stereo not drawn) [Compound C-3273, 1-(4-Butylphenyl)sulfonylaziridine-2-carbaldehyde]: on PDI A1, the EC50 was 3 µM. Further, the 50% inhibitory concentration (IC50) is 31 ± 0.9 µM in data set [1], 92 ± 2 µM in data set [2], 35 ± 3 µM in data set [3] and 56 ± 12 µM in data set [4].

As for `CCCCCc1ccc(S(=O)(=O)N2CC2C(=O)OC)cc1` (stereo not drawn) [Compound C-3281, Methyl 1-(4-pentylphenyl)sulfonylaziridine-2-carboxylate], in data set [5], the “Effect on tumour volume” value is “diminished tumour volume” and the “Effect on animal weight” value was “did not modified animal weight”.

For the compound `CCCCCCCc1ccc(S(=O)(=O)N2CC2C(=O)OC)cc1` (stereo not drawn) [Compound C-3288, Methyl 1-(4-heptylphenyl)sulfonylaziridine-2-carboxylate], the EC50 on PDI A1 is 0.4 µM.

Regarding `COC(=O)C1CN1S(=O)(=O)c1ccc(C(C)(C)C)cc1` (stereo not drawn) [Compound C-3290, Methyl 1-(4-tert-butylphenyl)sulfonylaziridine-2-carboxylate], at PDI A1, the EC50 amounted to 0.4 µM. For the same compound, the IC50 in data set [2] was determined as 29 ± 4 µM.

`COC(=O)C1CN1S(=O)(=O)c1ccc(-c2ccccc2)cc1` (stereo not drawn) [Compound C-3291, Methyl 1-(4-phenylphenyl)sulfonylaziridine-2-carboxylate]: the EC50 on PDI A1 was 0.4 µM.

As to `CCCc1ccc(S(=O)(=O)N2CC2C(=O)OC)cc1` (stereo not drawn) [Compound C-3299, Methyl 1-(4-propylphenyl)sulfonylaziridine-2-carboxylate], the EC50 on PDI A1 amounted to 0.8 µM.

Turning to `COC(=O)C1CN1S(=O)(=O)c1cccc2ccccc12` (stereo not drawn) [Compound C-3311, Methyl 1-(1-naphthylsulfonyl)aziridine-2-carboxylate], the EC50 on PDI A1 amounted to 5 µM.

In the case of `COC(=O)C1CN1S(=O)(=O)c1ccccc1C` (stereo not drawn) [Compound C-3320, Methyl 1-(o-tolylsulfonyl)aziridine-2-carboxylate], the concentration for half-maximal inhibition (IC50) in data set [3] was 380 ± 15 µM.

With `NC(=O)C1CN1S(=O)(=O)c1ccc(C(F)(F)F)cc1` (stereo not drawn) [Compound C-3324, 1-[4-(Trifluoromethyl)phenyl] sulfonylaziridine-2-carboxamide], the half-maximal inhibitory concentration (IC50) in data set [1] is 510 ± 3 µM; in data set [2] it was 156 ± 9 µM; in data set [3] it was 102 ± 12 µM; in data set [4], 27 ± 3 µM.

`COC(=O)C1CN1S(=O)(=O)c1ccc2cc(OC)ccc2c1` (stereo not drawn) [Compound C-3327, Methyl 1-[(6-methoxy-2-naphthyl)sulfonyl]aziridine-2-carboxylate]: the IC50 in data set [4] stood at 150 ± 10 µM.

As for `COC(=O)C1CN1S(=O)(=O)c1ccc2cc(C)ccc2c1` (stereo not drawn) [Compound C-3329, Methyl 1-[(6-methyl-2-naphthyl)sulfonyl]aziridine-2-carboxylate], in data set [5], the “Effect on tumour volume” value is “diminished tumour volume” and the “Effect on animal weight” value was “did not modified animal weight”.

Turning to `CN(C)C(=O)C1CN1S(=O)(=O)c1ccc(N(C)C)cc1` (stereo not drawn) [Compound C-3357, 1-[4-(Dimethylamino)phenyl] sulfonyl-N,N-dimethyl-aziridine-2-carboxamide], the IC50 in data set [1] was 30 ± 1 µM; in data set [2], 295 ± 9 µM; in data set [3] it was 25 ± 6 µM; in data set [4], 61 ± 3 µM.

In the case of `CCCCc1ccc(S(=O)(=O)N2CC2C(=O)N(C)C)cc1` (stereo not drawn) [Compound C-3362, 1-(4-Butylphenyl)sulfonyl-N,N-dimethyl-aziridine-2-carboxamide], the EC50 on PDI A1 stood at 0.5 µM.

Turning to `CCCCCCc1ccc(S(=O)(=O)N2CC2C(=O)N(C)C)cc1` (stereo not drawn) [Compound C-3369, 1-(4-Hexylphenyl)sulfonyl-N,N-dimethyl-aziridine-2-carboxamide], the EC50 at PDI A1 turned out to be 0.04 µM.

Regarding `CN(C)C(=O)C1CN1S(=O)(=O)c1cccc2cc(N(C)C)ccc12` (stereo not drawn) [Compound C-3377, 1-[[6-(Dimethylamino)-1-naphthyl]sulfonyl]-N,N-dimethylaziridine-2-carboxamide], the half-maximal inhibitory concentration (IC50) in data set [2] stood at 4.8 ± 0.1 µM.

As to `CN(C)C(=O)C1CN1S(=O)(=O)c1ccc(N(C)C)c2ccccc12` (stereo not drawn) [Compound C-3385, 1-[[4-(Dimethylamino)-1-naphthyl]sulfonyl] -N,N-dimethylaziridine-2-carboxamide], the EC50 on PDI A1 was 0.7 µM.

On to `COC(=O)C1CN1S(=O)(=O)c1ccc2cc(N(C)C)ccc2c1` (stereo not drawn) [Compound C-3397, Methyl 1-[[6-(dimethylamino)-2-naphthyl]sulfonyl]aziridine-2-carboxylate], for which the concentration for half-maximal inhibition (IC50) in data set [3] amounted to 38 ± 2 µM.

In the case of `CN(C)C(=O)C1CN1S(=O)(=O)c1ccc(F)cc1F` (stereo not drawn) [Compound C-3403, 1-(2,4-Difluorophenyl)sulfonyl-N,N-dimethyl-aziridine-2-carboxamide], the EC50 on PDI A1 came to 12.3 µM.

Take `CCCCCCc1ccc(S(=O)(=O)N2CC2C(=O)N2CCOCC2)cc1` (stereo not drawn) [Compound C-3517, [1-(4-Hexylphenyl)sulfonylaziridin-2-yl]-morpholino-methanone]: the half-inhibitory concentration (IC50) in data set [3] amounted to 12 ± 1 µM.

Take `CC(C)(C)c1ccc(S(=O)(=O)N2CC2C(N)=O)cc1` (stereo not drawn) [Compound C-3591, 1-(4-tert-Butylphenyl)sulfonylaziridine-2-carboxamide]: on PDI A1, the EC50 is 11 µM.

As for `CN(C)C(=O)C1CN1S(=O)(=O)c1ccc(C(C)(C)C)cc1` (stereo not drawn) [Compound C-3594, 1-(4-tert-Butylphenyl)sulfonyl-N,N-dimethyl-aziridine-2-carboxamide], the EC50 at PDI A1 came out at 26 µM.

For `Cc1ccc(S(=O)(=O)N2CC2C(=O)O)cc1` (stereo not drawn) [Compound C-3612, Lithium 1-tosylaziridine-2-carboxylate], the EC50 on PDI A1 came to 54.4 µM.
